# Measurements from EP0341661A2, “Peptide-drug compositions containing alpha-aminoboronic acid derivatives” (THE DU PONT MERCK PHARMACEUTICAL COMPANY, priority 1988, dated 1989).
# Structures can show the parent of a compound that is named as a salt.
# Test system: aminopeptidases
# Experiment: In situ nasal perfusion: disappearance of 100 µM Tyr-Phe-Met-Arg-Phe-NH₂ in the nasal perfusate
# Assay type: in vivo, Sprague-Dawley rats
# Conditions: 100 µM peptide, 2 µM Boroleucine
# Method: The method involved the use of Sprague-Dawley rats weighing approximately 300 grams. Each rat was anesthetized with sodium pentobarbitol (50 mg/kg). An incision was made in the neck and the trachea was canulated with PE 240 tubing. For the in situ studies, a second tube, which served to introduce the perfusing solution, was inserted through the esophagus to the posterior part of the nasal cavity. The nasopalatine was closed with an adhesive to prevent drainage of the perfusing solution from the nasal to the oral cavity. For the in vivo in situ studies, the esophagus was canulated using PE 240 tubing closed at one end. The closed end was pushed to the posterior end of the nasal passage and then tied in place. The nasopalatine was closed with an adhesive to prevent drainage of the perfusing solution from the nasal to the oral cavity. The rats were dosed in one nostril with 50 µl of peptide solution in two forms; the control solution had no inhibitor added, the test solution had inhibitor added at concentrations specified in the examples shown below. The dosing solution was 0.1 M phosphate buffer (pH 7.4). At certain time intervals (one rat/time interval), the drug was washed from the nose via the other nostril with 10 ml of 0.1 M phosphate buffer (pH 3.8) using a peristaltic pump. The nasal washing was then placed in a 10 ml volumetric flask and adjusted to 10 ml with the same buffer and analyzed for the peptide by HPLC.
# The analysis of leucine enkephalin and its major metabolite involved taking aliquots of samples, diluting them with 200 µl of 0.1 M citric acid (pH 2.3) to quench hydrolysis and subjecting the samples to analysis (for in vivo in situ studies, the washings were injected as they were obtained). High Pressure Liquid Chromatography (HPLC) was run on a 4.6 x 250 mm C₈ column. The mobile phase consisted of 0.1 M NaH₂PO₄-H₃PO₄-acetonitrile (916 : 5 : 275) and was delivered at a flow rate of 1.7 ml/min. Detection was by UV at 210 nm. Retention times for leucine enkephalin and its major degradation product, Des-Tyr-leucine enkephalin were 7.3 and 4.8 min., respectively. Data were calculated as % of leucine enkephalin remaining in the nasal perfusate as a function of time, counting the concentration at zero time as 100%.
# A 10 ml portion of the peptide solution was placed in a water-jacketed container, maintained at 37°C and circulated through the nasal cavity of rats using a peristaltic pump. The perfusing solution was passed through the nasal cavity, out the nostrils, through a funnel, and returned to the water-jacketed container. The perfusate was analyzed by the ANALYTICAL METHOD described above.
# In this example, a 0.1 M phosphate buffer solution (pH 7.4) containing 100 µM Tyr-Phe-Met-Arg-Phe-NH₂ was administered nasally to rats as described in Example 1. The peptide was administered in the absence of inhibitor and in the presence of 2 µM boroleucine. The perfusate was analyzed by HPLC using the procedure described in Example 1 with the exception that the mobile phase was comprised of 0.1 M NaH₂PO₄:H₃PO₄:CH₃CN (200:1:60) delivered at 1.4 ml/min. Detection was by UV at 210 nm.
compound,measurement,setting,value
"CC(C)CC(N)B1OC(C)(C)C(C)(C)O1 (stereo not drawn) [boroleucine, 3-methyl-1(4,4,5,5-tetramethyl-1,3,2-dioxaborolane-2-yl)-1-butamine, trifluoroacetic acid salt]",Tyr-Phe-Met-Arg-Phe-NH₂ remaining intact in the nasal perfusate,0 min,100.0%
same,Tyr-Phe-Met-Arg-Phe-NH₂ remaining intact in the nasal perfusate,5 min,93.8%
same,Tyr-Phe-Met-Arg-Phe-NH₂ remaining intact in the nasal perfusate,20 min,84.3%
same,Tyr-Phe-Met-Arg-Phe-NH₂ remaining intact in the nasal perfusate,30 min,78.8%
same,Tyr-Phe-Met-Arg-Phe-NH₂ remaining intact in the nasal perfusate,45 min,70.5%
same,Tyr-Phe-Met-Arg-Phe-NH₂ remaining intact in the nasal perfusate,60 min,63.3%
same,Tyr-Phe-Met-Arg-Phe-NH₂ remaining intact in the nasal perfusate,90 min,49.5%
same,Tyr-Phe-Met-Arg-Phe-NH₂ remaining intact in the nasal perfusate,"120 min, listed as Boroleucine, trifluoroacetic acid salt",32.9%
same,Tyr-Phe-Met-Arg-Phe-NH₂ remaining intact in the nasal perfusate,"120 min, trifluoroacetic acid salt",33%
